Measurements reported in EPA's ToxValDB 9.5.
Values after ≈ are worked out from the molar mass of the structure shown. Values joined by “and” are separate entries in the source; they are usually repeats but may differ in a detail not shown here. Equal values may be shown once.

Assays:
[1] = tested on: Canidae; conditions: subchronic; duration: 3 months; oral; diet; Beagle
[2] = tested on: Cricetulus sp.; conditions: acute; oral; Chinese
[3] = tested on: Mus musculus; conditions: oral, gavage
[4] = tested on: Oryctolagus sp.; conditions: acute
[5] = tested on: Rattus norvegicus; conditions: for LC50 / LD50: acute
[6] = tested on: Rattus norvegicus; conditions: short-term; duration: 28 days; oral; gavage; M/F; Sprague-Dawley; Urinalysis: N/A(measured only 16h volume) + Absolute Organ Weight: Liver increase + Relative Organ Weight: Liver increase + Necropsy: Kidney…
[7] = tested on: Rattus norvegicus; conditions: dietary / carcinogenicity; duration: 2 years; oral; feed; M/F; Hepatocellular lipid vacuolation
[8] = tested on: Rattus norvegicus; assay: LC100; higher = less toxic; conditions: acute; inhalation; Sprague-Dawley
[9] = tested on: Cavia porcellus; conditions: uterotrophic; duration: 12 days; injection; subcutaneous; Guinea Pig; Active
[10] = tested on: Monkey; conditions: subchronic; duration: 3 months; inhalation
[11] = tested on: Cavia porcellus; conditions: subchronic; duration: 3 months; inhalation; Guinea Pig
[12] = tested on: Homo sapiens; conditions: clinical; oral; M/F; No significant adverse effects
[13] = tested on: Homo sapiens; conditions: clinical; duration: 10 weeks; oral; diet; Blood: Decreased blood enzyme
[14] = tested on: Homo sapiens; conditions: clinical, duration: 10 weeks, oral, F, hematological
[15] = tested on: Homo sapiens; conditions: clinical; oral; M/F; decreased erythrocyte cu, zn-superoxide dismutase (esod) activity in healthy adult male and female volunteers
[16] = short-term, duration: 18 days, inhalation, Sprague-Dawley
[17] = subchronic, duration: 13 weeks, B6C3F1
[18] = subchronic, duration: 13 weeks, oral, gavage, F33/N

In the case of `CCCCCCCCCCCCCCCCCCOC(=O)CCc1cc(C(C)(C)C)c(O)c(C(C)(C)C)c1` [Octadecyl 3-(3,5-di-tert-butyl-4-hydroxyphenyl)propionate], the NOAEL [1] was ≥ 31.5 mg/kg-day and ≤ 34.5 mg/kg-day, the LD50 [2] was > 6000 mg/kg and the NOAEL ([3]; developmental, duration: 10 days, NMRI) was > 1000 mg/kg-day. The NOAEL ([3]; reproduction developmental, duration: 10 days, F, NMRI) was 500 mg/kg-day, the LD50 ([4]; dermal) was > 2000 mg/kg and the LC50 ([5]; inhalation) was > 1.8 µg/mL. For the same compound, the LC50 ([5]; inhalation, particle) was > 1.8 µg/mL, the LD50 ([5]; injection, Intraperitoneal) was > 1000 mg/kg and the LD50 ([5]; injection, intraperitoneal) was > 1000 mg/kg. For the same compound, the LD50 ([5]; oral) was > 5000 mg/kg, the NOAEL ([5]; chronic, duration: 104 weeks, oral, diet, Cfy) was 39 mg/kg-day and the NOAEL ([5]; developmental, duration: 10 days, oral, gavage, Sprague-Dawley) was > 1000 mg/kg-day. For the same compound, the LOAEL ([5]; developmental, oral, diet) was 500 ppm, the NOAEL ([5]; reproduction developmental, duration: 10 months, oral, diet, COBS(R)CD(R), generation: F0) was 1500 ppm and the NOAEL ([5]; reproduction developmental, duration: 10 months, oral, diet, COBS(R)CD(R), generation: F1) was < 500 ppm. For the same compound, the NOAEL ([5]; reproduction developmental, duration: 10 months, oral, diet, COBS(R)CD(R), generation: F2) was < 500 ppm, the NOAEL ([5]; reproduction developmental, duration: 10 days, oral, gavage, F, Sprague-Dawley) was 150 mg/kg-day and the NOAEL ([5]; reproduction developmental, duration: 10 days, oral, gavage, generation: F0) was 150 mg/kg-day. For the same compound, the NOAEL ([5]; reproduction developmental, oral, diet, F) was 1500 ppm, the NOAEL ([5]; reproduction developmental, oral, diet, generation: F0) was 1500 ppm and the NOAEL ([5]; short-term, duration: 21 days, inhalation, RAI f (SPF)) was > 0.543 mg/L. For the same compound, the NOAEL ([5]; short-term, duration: 28 days, oral, diet, F) was 1000 mg/kg-day, the NOAEL ([5]; short-term, duration: 28 days, oral, diet, M) was 100 mg/kg-day and the NOAEL ([5]; short-term, duration: 28 days, oral, gavage, Sprague-Dawley) was 30 mg/kg-day. For the same compound, the NOAEL [6] was 30 mg/kg-day.

With `COC(=O)Nc1nc2ccc(S(=O)c3ccccc3)cc2[nH]1` (stereo not drawn) [Oxfendazole] the NOEL [7] was 0.7 mg/kg-day.

For `CCC#N` [Propionitrile], the LD50 ([4]; dermal, occlusive, New Zealand) was 90 mg/kg and 40 mg/kg and 56 mg/kg, the LC50 ([5]; inhalation, Sprague-Dawley) was 3.3 µg/mL (≈ 59.9 µM) and the NOAEL ([5]; developmental, duration: 6 days, oral, gavage, Sprague-Dawley) was 40 mg/kg-day. The NOAEL ([5]; reproduction developmental, duration: 14 weeks, inhalation, Sprague-Dawley) was > 471 mg/m3, the NOAEL ([5]; reproduction developmental, duration: 46 days, inhalation, Sprague-Dawley, generation: F0) was 135 mg/m3 and the NOAEL ([5]; reproduction developmental, duration: 46 days, inhalation, Sprague-Dawley, generation: F1) was 473 mg/m3. For the same compound, the LOAEL [5, 16] was 741 mg/m3, the NOAEL [5, 16] was 259 mg/m3 and the LC100 [8] was 90.3 mg/L.

Work on `CC/C(=C(\c1ccccc1)c1ccc(OCCN(C)C)cc1)c1ccccc1` [Tamoxifen] yielded an LEL [9] of 0.1 mg/day.

Compound `CCCCC(CC)COP(=O)(OCC(CC)CCCC)OCC(CC)CCCC` (stereo not drawn) [Tris(2-ethylhexyl) phosphate] has an NOAEL [10] of 85 mg/m3, an LOAEL [11] of 9.6 mg/m3 and an NOAEL [11] of 1.6 mg/m3. The LOAEL [3, 17] was 4000 mg/kg-day, the NOAEL [3, 17] was 2000 mg/kg-day and the LD50 ([4]; dermal) was 20000 mg/kg. For the same compound, the LD50 ([4]; injection, intravenous) was > 358 mg/kg, the LD50 ([4]; intertracheal) was > 1810 mg/kg and the LD50 ([5]; inhalation) was > 0.45 mg/L. It also gave an LOAEL [5, 18] of 2000 mg/kg-day, an NOAEL [5, 18] of 1000 mg/kg-day and an NOAEL ([5]; subchronic, duration: 30 days, oral, diet) of 430 mg/kg-day.

In the case of `[Zn]` [Zinc], the NOAEL [12] was 220 mg/day and 600 mg/day, the LOAEL [13] was 1 mg/kg-day and the NOAEL [14] was 0.83 mg/kg-day. The NOAEL ([14]; capsule) was 0.83 mg/kg-day and the LOAEL [15] was 0.91 mg/kg-day.
